What follows are compounds tested on LpxC–9 complex (assay: NMR-ILOE (interligand NOESY) of fragment hits with LpxC and 9). Conditions: fragment hits binding the LpxC–9 complex by STD and WaterLogsy; 6 μM LpxC.
Method: In order to find fragments specifically addressing the UDP-binding pocket, which can be linked to the LpxC inhibitors, a fragment screen was performed against LpxC bound to 9. First, 650 fragments in cocktails of five were tested for binding to the LpxC–9 complex using STD-NMR and WaterLogsy experiments. Then, fragment hits identified as potential binders were tested one by one against the LpxC–9 complex by STD-NMR and WaterLogsy experiments performed under identical experimental conditions. A total of 97 fragment hits were identified as binders, leading to a hit rate of 15%.
Then, NMR-ILOE experiments were performed with selected fragment hits in the presence of LpxC and the unsubstituted hydroxamic acid 9. This allowed the identification of fragments that bind in the enzyme’s UDP-binding pocket near the methylene group in the α-position of the inhibitor’s hydroxamate moiety. Weak interligand NOESY peaks were observed between inhibitor 9 and nine fragments. By contrast, no interligand NOESY peaks were observed between compound 9 and the other ten fragments. […] Unexpectedly, we also observed interligand NOESY between the fragment protons and protons of the morpholino moiety.
Standard 1D and STD NMR spectra were acquired at 20 °C with a Bruker 600 MHz NMR spectrometer equipped with a 5 mm cryoprobe. Parameters for the STD experiments (saturation frequency and saturation time) were identical for all samples. […] STD saturation time was 2 s. WaterLOGSY mixing time was 1.5 s. Two NOESY experiments were recorded with mixing times of 0.6 and 0.3 s. STD and WaterLOGSY spectra were recorded with the same NMR tubes containing 3 μM LpxC, compound 9 at 500 μM, and fragments at 500 μM. For NOESY experiments, NMR tubes contained 6 μM LpxC.
Temperature was set to 293 K for all NMR experiments.

Row | Compound | Inter-Ligand NOESY peaks between the fragment and 9
1 | Oc1ccc(-n2ccnc2)cc1 [F2] | yes
2 | c1ccc2[nH]ccc2c1 [F3] | yes
3 | NC(=O)Cc1c[nH]c2ccc(Cl)cc12 [F4] | yes
4 | c1ccc2c(c1)CCCN2 [F5] | yes
5 | Nc1cnc2ccccc2c1 [F6] | yes
6 | Nc1c2c(nc3ccccc13)CCCC2 [F7] | no
7 | c1ccc(C2NCCn3cccc32)cc1 (stereo not drawn) [F8] | no
8 | OCc1ccc(-n2cccn2)cc1 [F9] | no
9 | c1ccc(Nc2ccccn2)nc1 [F10] | no
10 | NCc1ccc(-c2ccccc2)cc1 [F11] | yes
11 | c1ccc2[nH]ncc2c1 [F12] | no
12 | Cn1c(O)cc2ccccc21 [F13] | no
13 | c1ccc(-c2cc[nH]n2)cc1 [F14] | yes
14 | O=c1ccn([C@@H]2O[C@H](CO)[C@@H](O)[C@H]2O)c(=O)[nH]1 [F15] | no
15 | O=c1cc[nH]c(=O)[nH]1 [F16] | no
16 | Nc1cccc(-c2cnco2)c1 [F17] | no
17 | O=C1OCc2ccccc21 [F18] | no
18 | c1ccc(Cn2ccnc2)cc1 [F19] | yes

Source: article PMC11472313, “Development of Fragment-Based Inhibitors of the Bacterial Deacetylase LpxC with Low Nanomolar Activity” (Journal of Medicinal Chemistry, 2024)
